Where two headings read alike, the source gives them in different places.
Tests used:
[1] = tested on: mouse carotid artery injury model; assay: mouse carotid artery injury model, neointimal area; type: in vivo; settings: female B6.129 mice, high fat diet, oral 50 mg/kg resveratrol, 10 mg/kg quercetin or both, 2 weeks before and 2 weeks after injury
Protocol: FIG. 9 is a bar chart showing the effects of oral administration with 50 mg/kg resveratrol (RESV), 10 mg/kg quercetin (QUER), or resveratrol plus quercetin on neointimal areas in mice subjected to the carotid artery injury procedure. Values represent means+SEM. […] Neointimal area was determined by subtracting the luminal area from the area encircled by the internal elastic lamina. Determining whether quercetin potentiates the vascular protective effects of resveratrol in vivo, utilizing a mouse carotid artery injury model. Female B6.129 mice were administered a high fat diet, in some cases mixed together with 50 mg/kg resveratrol (RESV), 10 mg/kg quercetin (QUER), or resveratrol plus quercetin, for 2 weeks. The carotid artery injury procedure was conducted and the animals were fed the high fat diet plus polyphenols for an additional two weeks. The animals were then sacrificed, and the carotid arteries were excised and assessed for neointimal areas.

macrophages [2] = assay: LPS-stimulated macrophage activation, nitric oxide release, isobologram; type: cell-based; settings: CalcuSyn, read-out: IC50 macrophage activation, individual treatments
Protocol: Macrophages were incubated with differing dose ratios of resveratrol:quercetin and were stimulated with LPS. Activation was assessed as increases in nitric oxide release. The IC50's for each dose ratio were calculated using CaluSyn software and were used to plot the isobologram. The line depicted above indicates the point at which additive responses are observed (C1=1). Points lying above the line indicate antagonism, whereas points below the line represent synergism.
Isobolograms for the determination of synergistic dose ratios for a resveratrol/quercetin combination. To determine the dose ratios for achieving maximal synergistic effects, activation in LPS-stimulated cells macrophages incubated with constant dose ratios of resveratrol and quercetin was measured. The IC50 for each dose ratio was calculated using CalcuSyn software, and these concentrations were used to construct an isobologram (FIG. 13). […] Briefly, CI=1 denotes additive effects, CI>1 denotes antagonism, and CI<1 indicates synergism.

[3] = cited from earlier work
macrophages [4] = assay: LPS-stimulated macrophage activation, iNOS protein; type: cell-based
Protocol: To test the efficacy of a resveratrol/quercetin combination in inhibiting the activation of macrophages, effects of polyphenol treatments either alone or in combination with quercetin were assessed in cultures of lipopolysaccharide (LPS) stimulated macrophages. Macrophage activation was determined by increases in protein levels of inducible nitric oxide synthase (iNOS) and by levels of reactive oxygen species (ROS).

VSMC [5] = assay: BrdU proliferation assay of VSMC with drug-eluting flats; type: cell-based; settings: 48 hours elution
Protocol: Bare metal flats coated with resveratrol—(FIG. 17A) or quercetin—(FIG. 17B) containing arbIBS of either a closed or an open morphology were incubated in semi-permeable transwell inserts in plates containing VSMC. The bromodeoxyuridine (BrdU) incorporation assay for cell proliferation was conducted after 48 h of drug elution. […] The polyisobutylene-polystyrene triblock copolymers coated flats containing resveratrol or quercetin were incubated in semi-permeable transwell inserts in plates containing VSMC.

platelet activation = assay: thromboxane B2 levels in mouse carotid artery injury model; type: in vivo; settings: 4 weeks oral, 50 mg/kg resveratrol, 10 mg/kg quercetin or both, B6.129 mice
Protocol: Plasma levels of thromboxane B2 (TBX2), a known marker for platelet activation, were assessed.

platelets = assay: platelet activation, tritiated serotonin release after ADP; type: cell-based, human; settings: 3 h, 5 μM ADP
Protocol: Values represent means+/−standard error.
To determine the efficacy of these compounds in reducing platelet activation, platelets isolated from healthy, male donors were incubated with resveratrol, quercetin, or resveratrol plus quercetin. The doses were selected based on prior studies.

NFκB = NFκB activation in vascular smooth muscle cells; type: cell-based
Excerpt: FIG. 3 is a bar chart showing the effect of resveratrol on NFκB activation in vascular smooth muscle cells

[6] = resveratrol release from polymer-coated flats (HPLC); type: physicochemical
Protocol: Polymer coated flats were incubated in medium at 37° C. for 28 d. Resveratrol concentration in the medium was assessed at 2 d intervals using high performance liquid chromatography. The data are expressed as means+/−standard error for cumulative release in micromolar concentrations (FIG. 18A) compared to a percent of total drug loaded (FIG. 18B).
Determination of resveratrol release was performed using reversed phase high performance liquid chromatography (HPLC) coupled to a 4-channel Coularray electrochemical detector run at 590, 660, 730, and 800 mV. […] Establishing biocompatibility is a critical step in the development of the stent models.

VSMC [7] = assay: VSMC proliferation (DNA synthesis, cell number); type: cell-based; settings: Rattus norvegicus
ER-alpha = target: T1, ER-alpha (Homo sapiens, UniProt P03372); settings: same binding site as estradiol; cited from earlier work
T1 sequence (P03372 1-595): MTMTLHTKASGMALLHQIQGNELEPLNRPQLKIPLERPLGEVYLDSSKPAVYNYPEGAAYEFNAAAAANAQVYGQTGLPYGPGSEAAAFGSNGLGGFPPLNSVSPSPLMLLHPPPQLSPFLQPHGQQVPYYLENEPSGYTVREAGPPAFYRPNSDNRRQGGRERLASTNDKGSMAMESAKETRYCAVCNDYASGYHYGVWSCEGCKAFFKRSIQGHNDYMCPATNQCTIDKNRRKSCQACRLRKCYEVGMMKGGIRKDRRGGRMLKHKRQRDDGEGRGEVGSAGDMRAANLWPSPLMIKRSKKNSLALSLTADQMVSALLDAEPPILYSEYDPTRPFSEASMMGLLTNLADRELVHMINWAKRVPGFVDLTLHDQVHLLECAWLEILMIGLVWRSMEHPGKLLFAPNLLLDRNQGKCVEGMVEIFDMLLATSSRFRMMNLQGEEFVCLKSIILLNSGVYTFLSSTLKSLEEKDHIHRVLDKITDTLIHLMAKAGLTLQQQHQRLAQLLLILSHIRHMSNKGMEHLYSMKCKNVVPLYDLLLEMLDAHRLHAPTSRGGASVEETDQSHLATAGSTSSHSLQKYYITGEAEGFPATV

IC50 (macrophages [2]) | total drug loaded that had eluted ([6]; at 28 days) | eluted concentration of resveratrol ([6]; medium 37° C., 28 d) | release from 100 mg/cm^2 coated flat relative to 50 mg/cm^2-coated flat ([6]; regardless of morphology, medium 37° C.) | Structure (SMILES) | neointimal area [1] | solubility in water [3] | reduction of iNOS protein (macrophages [4]; 10 μM quercetin) | reduction of iNOS protein (macrophages [4]; 15 μM quercetin) | inhibition of VSMC proliferation (VSMC [5]; 75 μg/cm^2, particulate (open) or smooth (closed) matrix) | reduction of plasma TXB2 levels (platelet activation) | reduction of serotonin release (platelets; 10-15 μM quercetin) | inhibition of NFκB activation (NFκB) | reduction of iNOS protein levels (macrophages [4]; 18 μM resveratrol) | inhibition of VSMC proliferation (VSMC [5]; smooth (closed) matrix, 100 μg/cm^2 loading) | EC50 (VSMC [7]; read-out: EC50 for inhibiting DNA synthesis) | EC50 (VSMC [7]; read-out: EC50 for reducing numbers of cells) | binding affinity (ER-alpha) | reduction of serotonin release (platelets; 18 μM resveratrol)
2.4 µM | – | – | – | O=c1c(O)c(-c2ccc(O)c(O)c2)oc2cc(O)cc(O)c12 [quercetin, 2-(3,4-dihydroxyphenyl)-3,5,7-trihydroxy-4H-1-benzopyran-4-one] | no significant effect | practically insoluble | ~75% | ~90% | significantly inhibited proliferation | 40% | 40-50% | – | – | – | – | – | – | –
3.5 µM | 5-10% | low micromolar concentrations | approximately 4 fold | Oc1ccc(C=Cc2cc(O)cc(O)c2)cc1 [resveratrol] | dramatically reduced | – | – | – | – | no significant effect | – | very potently | ~25% | significantly inhibited proliferation | 18 µM | 25 µM | lower binding affinity than estradiol | ~60%

Reference: patent US8992603B2, “Coated devices and method of making coated devices that reduce smooth muscle cell proliferation and platelet activity” (Nanocopoeia, Inc., priority 2007, dated 2015)
